# Assay results reported in patent US20070010670A1, “Nitrogen-containing fused ring compounds and use thereof” (Japan Tobacco Inc., priority 2004, published 2007).
# Biological target: T1, CYP2C9 (Homo sapiens, UniProt P11712)
# T1 construct: Human liver microsome (20 mg protein/mL, 5 μL, Xenotech LLC, purchased from Lenexa KS); tissue Xenotech LLC; host or cells: human liver microsome
# Experiment: CYP inhibitory test using human liver microsome
# Assay type: in vitro ADME
# Conditions: model substrate diclofenac, 37° C. 10 min, read-out: CYP2C9 inhibition IC50
# Protocol: Human liver microsome (20 mg protein/mL, 5 μL, Xenotech LLC, purchased from Lenexa KS) was suspended in 100 mM potassium phosphate buffer (70 μL, pH 7.4), mixed with a solution (0.5 μL) of the Example compound dissolved in DMSO and preincubated at 37° C. for 5 min. NADPH producing system coenzyme solution (β-nicotinamide adenine dinucleotide phosphate: 5.2 mM, D-glucose-6-phosphate: 13.2 mM, magnesium chloride: 13.2 mM, glucose-6-phosphate dehydrogenase: 1.8 U/mL) 25 μL, and a model substrate (CYP3A4: midazolam 1 mM, CYP2D6: bufuralol 1 mM, CYP2C9: diclofenac 2 mM) 0.5 μL dissolved in DMSO were added to start the reaction. After incubation at 37° C. for 10 min., acetonitrile (200 μL) containing an internal standard substance (propranolol 1 μM) was added and the mixture was centrifuged (room temperature, 3000 rpm, 20 min). The amount of the metabolite produced from each model substrate in the supernatant was measured by high performance liquid chromatography/mass spectrometry (LC/MS/MS) and each CYP enzyme activity was determined. The concentration showing 50% inhibition (IC50) was calculated relative to the enzyme activity without addition of Example compound (DMSO 0.5 μL added) as 100%.
# T1 sequence (P11712 whole entry): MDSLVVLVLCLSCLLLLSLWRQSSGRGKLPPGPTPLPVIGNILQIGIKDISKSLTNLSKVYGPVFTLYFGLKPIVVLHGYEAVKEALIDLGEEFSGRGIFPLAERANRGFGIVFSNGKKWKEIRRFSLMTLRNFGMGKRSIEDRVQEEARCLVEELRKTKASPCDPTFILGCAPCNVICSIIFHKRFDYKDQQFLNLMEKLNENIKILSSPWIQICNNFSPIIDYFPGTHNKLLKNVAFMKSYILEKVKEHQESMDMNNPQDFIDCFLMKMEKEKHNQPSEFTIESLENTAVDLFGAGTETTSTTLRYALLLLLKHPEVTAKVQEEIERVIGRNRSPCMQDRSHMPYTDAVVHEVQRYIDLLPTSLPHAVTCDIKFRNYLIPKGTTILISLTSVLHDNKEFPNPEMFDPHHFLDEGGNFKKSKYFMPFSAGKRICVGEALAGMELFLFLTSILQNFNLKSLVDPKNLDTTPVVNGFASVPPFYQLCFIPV
row,Compound,IC50 [µM]
1,"O=C(c1cc(Cl)c(O)c(Cl)c1)N1CCOc2cccnc21 [Example 36, (3,5-dichloro-4-hydroxyphenyl)-(2,3-dihydropyrido[3,2-b][1,4]oxazin-4-yl)-methanone]",16
2,"O=C1CCN(C(=O)c2cc(Cl)c(O)c(Cl)c2)c2ccccc2N1 [Example 37, 5-(3,5-dichloro-4-hydroxybenzoyl)-1,3,4,5-tetrahydrobenzo[b][1,4]diazepin-2-one]",> 50
3,"O=C(c1ccc(O)c(C(F)(F)F)c1)N1CCOc2ccccc21 [Example 39, (2,3-dihydrobenzo[1,4]oxazin-4-yl)-(4-hydroxy-3-trifluoromethylphenyl)-methanone]",21
4,"O=C(c1ccc([N+](=O)[O-])cc1)N1CCOc2ccccc21 [Example 43, (2,3-dihydrobenzo[1,4]oxazin-4-yl)-(4-nitrophenyl)-methanone]",> 50
5,"COC(=O)c1ccc(C(=O)N2CCOc3ccccc32)cc1 [Example 46, methyl 4-(2,3-dihydrobenzo[1,4]oxazine-4-carbonyl)benzoate]",> 50
6,"O=C(O)c1ccc(C(=O)N2CCOc3ccccc32)cc1 [Example 47, 4-(2,3-dihydrobenzo[1,4]oxazine-4-carbonyl)benzoic acid]",> 50
7,"O=C(c1cc(Cl)c(O)c(Cl)c1)N1CCOc2ccc(Cl)cc21 [Example 51, (6-chloro-2,3-dihydrobenzo[1,4]oxazin-4-yl)-(3,5-dichloro-4-hydroxyphenyl)-methanone]",16
8,"COC(=O)c1ccc2c(c1)N(C(=O)c1cc(Cl)c(O)c(Cl)c1)CCO2 [Example 55, methyl 4-(3,5-dichloro-4-hydroxybenzoyl)-3,4-dihydro-2H-benzo[1,4]oxazine-6-carboxylate]",19
9,"O=C(c1cc(Cl)c(O)c(Cl)c1)N1CCOc2ccc(CO)cc21 [Example 56, (3,5-dichloro-4-hydroxyphenyl)-(6-hydroxymethyl-2,3-dihydrobenzo[1,4]oxazin-4-yl)-methanone]",> 50
10,"COC(=O)c1cccc2c1N(C(=O)c1cc(Cl)c(O)c(Cl)c1)CCO2 [Example 58, methyl 4-(3,5-dichloro-4-hydroxybenzoyl)-3,4-dihydro-2H-benzo[1,4]oxazine-5-carboxylate]",21
11,"COC(=O)c1ccc2c(c1)OCCN2C(=O)c1cc(Cl)c(O)c(Cl)c1 [Example 59, methyl 4-(3,5-dichloro-4-hydroxybenzoyl)-3,4-dihydro-2H-benzo[1,4]oxazine-7-carboxylate]",8
12,"COC(=O)c1cccc2c1OCCN2C(=O)c1cc(Cl)c(O)c(Cl)c1 [Example 61, methyl 4-(3,5-dichloro-4-hydroxybenzoyl)-3,4-dihydro-2H-benzo[1,4]oxazine-8-carboxylate]",43
13,"O=C(O)c1cccc2c1OCCN2C(=O)c1cc(Cl)c(O)c(Cl)c1 [Example 62, 4-(3,5-dichloro-4-hydroxybenzoyl)-3,4-dihydro-2H-benzo[1,4]oxazine-8-carboxylic acid]",> 50
14,"O=C(c1cc(Cl)c(O)c(Cl)c1)N1c2ccccc2Oc2ccccc21 [Example 64, (3,5-dichloro-4-hydroxyphenyl)-phenoxazin-10-ylmethanone]",6
15,"O=C(c1cc(Cl)c(O)c(Cl)c1)N1CCOc2ccc(-c3ccccc3)cc21 [Example 65, (3,5-dichloro-4-hydroxyphenyl)-(6-phenyl-2,3-dihydrobenzo[1,4]oxazin-4-yl)-methanone]",14
16,"Cc1cc(C)c2c(c1)N(C(=O)c1cc(Cl)c(O)c(Cl)c1)CCO2 [Example 66, (3,5-dichloro-4-hydroxyphenyl)-(6,8-dimethyl-2,3-dihydrobenzo[1,4]oxazin-4-yl)-methanone]",12

# Continued, values first:
row,IC50 [µM],Compound
1,14,"CN(C)S(=O)(=O)c1ccc2c(c1)N(C(=O)c1cc(Cl)c(O)c(Cl)c1)CCO2 [Example 35, 4-(3,5-dichloro-4-hydroxybenzoyl)-3,4-dihydro-2H-benzo[1,4]oxazine-6-sulfonic acid dimethylamide]"
2,5,"O=C(c1cc(Cl)cc(Cl)c1O)N1CCOc2ccccc21 [Example 38, (3,5-dichloro-2-hydroxyphenyl)-(2,3-dihydrobenzo[1,4]oxazin-4-yl)-methanone]"
3,> 50,"COc1cc(C(=O)N2CCOc3ccccc32)cc(Cl)c1O [Example 40, (3-chloro-4-hydroxy-5-methoxyphenyl)-(2,3-dihydrobenzo[1,4]oxazin-4-yl)-methanone]"
4,> 50,"O=C(c1ccc(Cl)c(O)c1)N1CCOc2ccccc21 [Example 41, (4-chloro-3-hydroxyphenyl)-(2,3-dihydrobenzo[1,4]oxazin-4-yl)-methanone]"
5,> 50,"O=C(c1cc(Cl)nc(Cl)c1)N1CCOc2ccccc21 [Example 42, (2,6-dichloropyridin-4-yl)-(2,3-dihydrobenzo[1,4]oxazin-4-yl)-methanone]"
6,31,"O=C(c1cc(Cl)c(O)c(Cl)c1)N1CCOc2ccc(F)cc21 [Example 44, (3,5-dichloro-4-hydroxyphenyl)-(6-fluoro-2,3-dihydrobenzo[1,4]oxazin-4-yl)-methanone]"
7,> 50,"O=C(O)c1ccccc1C(=O)N1CCOc2ccccc21 [Example 45, 2-(2,3-dihydrobenzo[1,4]oxazine-4-carbonyl)benzoic acid]"
8,> 50,"COC(=O)c1cccc(C(=O)N2CCOc3ccccc32)c1 [Example 48, methyl 3-(2,3-dihydrobenzo[1,4]oxazine-4-carbonyl)benzoate]"
9,> 50,"O=C(O)c1cccc(C(=O)N2CCOc3ccccc32)c1 [Example 49, 3-(2,3-dihydrobenzo[1,4]oxazine-4-carbonyl)benzoic acid]"
10,15,"O=C(c1cc(Cl)c(O)c(Cl)c1O)N1CCOc2ccccc21 [Example 50, (3,5-dichloro-2,4-dihydroxyphenyl)-(2,3-dihydrobenzo[1,4]oxazin-4-yl)-methanone]"
11,11,"O=C(c1cc(Cl)c(O)c(Cl)c1)N1CCOc2cc(Cl)ccc21 [Example 52, (7-chloro-2,3-dihydrobenzo[1,4]oxazin-4-yl)-(3,5-dichloro-4-hydroxyphenyl)-methanone]"
12,6,"O=C(c1cc(Cl)c(O)c(Cl)c1)N1CCN(C(=O)c2cc(Cl)c(O)c(Cl)c2)c2ccccc21 [Example 53, [4-(3,5-dichloro-4-hydroxybenzoyl)-3,4-dihydro-2H-quinoxalin-1-yl]-(3,5-dichloro-4-hydroxyphenyl)-methanone]"
13,48,"O=C(c1cc(Cl)c(O)c(Cl)c1)N1CCNc2ccccc21 [Example 54, (3,5-dichloro-4-hydroxyphenyl)-(3,4-dihydro-2H-quinoxalin-1-yl)-methanone]"
14,> 50,"O=C(O)c1ccc2c(c1)N(C(=O)c1cc(Cl)c(O)c(Cl)c1)CCO2 [Example 57, 4-(3,5-dichloro-4-hydroxybenzoyl)-3,4-dihydro-2H-benzo[1,4]oxazine-6-carboxylic acid]"
15,> 50,"O=C(O)c1ccc2c(c1)OCCN2C(=O)c1cc(Cl)c(O)c(Cl)c1 [Example 60, 4-(3,5-dichloro-4-hydroxybenzoyl)-3,4-dihydro-2H-benzo[1,4]oxazine-7-carboxylic acid]"
16,> 50,"O=C(c1cc(Cl)cc(Cl)c1)N1CCOc2ccccc21 [Example 63, (3,5-dichlorophenyl)-(2,3-dihydrobenzo[1,4]oxazin-4-yl)-methanone]"
